Legend:
[1] = tested on: BV2 (mouse microglia) cell line; test: pHrodo-myelin phagocytosis/cell viability high content imaging assay: viability (cell count, nuclear area, nuclear intensity); details: for 1. Cell count (% control) / 2. Nuclear Area (% Control) / 3. Nuclear DNA Intensity (% control): 48 hours treatment
In short: (§1)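 BV2 mouse and HMC3 human microglia were treated with compounds at 10 μM for 48 h, with pHrodo-myelin present for the last 20 h. Viability was imaged as total cell count per well and mean nuclear intensity per cell. Values are means of duplicates, normalized to untreated wells as % control.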

[2] = tested on: HMC3 (human microglia) cell line; test: as above; details: for 1. Cell count (% control) / 2. Nuclear Area (% Control) / 3. Nuclear DNA Intensity (% control): 48 hours treatment
In short: as §1

[3] = tested on: BV2 (mouse microglia) cell line; test: pHrodo-myelin phagocytosis/cell viability high content imaging assay: phagocytosis signal; type: cell-based
In short: (§2)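 HCI read-out ~22 h post pHrodo-myelin; phagocytosis + viability simultaneously; 3 parameters extracted; intensity up = early apoptosis, down = later apoptosis.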

[4] = tested on: HMC3 (human microglia) cell line; test: as above; type: cell-based
In short: as §2

[5] = BV2 cells, 10 uM compound, 48 hours treatment, pHrodo-myelin final 20 hours
[6] = HMC3 cells, 10 uM compound, 48 hours treatment, pHrodo-myelin final 20 hours
[7] = BV2, compound 10 uM, pHrodo-myelin
[8] = HMC3, compound 10 uM, pHrodo-myelin

| SMILES | 1. Cell count (% control) ([1]; BV2 cells, 10 uM compound) | 2. Nuclear Area (% Control) ([1]; BV2 cells, 10 uM compound) | 3. Nuclear DNA Intensity (% control) ([1]; BV2 cells, 10 uM compound) | 1. Cell count (% control) ([2]; HMC3 cells, 10 uM compound) | 2. Nuclear Area (% Control) ([2]; HMC3 cells, 10 uM compound) | 3. Nuclear DNA Intensity (% control) ([2]; HMC3 cells, 10 uM compound) | 4. Phagocytosis (% control) [3, 5] [% control] | 4. Phagocytosis (% control) [4, 6] [% control] | 1. Cell count (% control) ([1]; BV2, compound 10 uM) | 2. Nuclear Area (% Control) ([1]; BV2, compound 10 uM) | 3. Nuclear DNA Intensity (% control) ([1]; BV2, compound 10 uM) | 1. Cell count (% control) ([2]; HMC3, compound 10 uM) | 2. Nuclear Area (% Control) ([2]; HMC3, compound 10 uM) | 3. Nuclear DNA Intensity (% control) ([2]; HMC3, compound 10 uM) | 4. Phagocytosis (% control) [3, 7] [% control] | 4. Phagocytosis (% control) [4, 8] [% control] | Mouse microglial cytotoxicity at 10 μM (<70% control) ([1]; 10 μM, BV2) | Human microglial cytotoxicity at 10 μM (<70% control) ([2]; 10 μM, HMC3) | Stimulation of mouse microglial phagocytosis at 10 μM (>150% control) ([3]; 10 μM, BV2) | Inhibition of human microglial phagocytosis at 10 μM (<70% control) ([4]; 10 μM, HMC3) |
| --- | --- | --- | --- | --- | --- | --- | --- | --- | --- | --- | --- | --- | --- | --- | --- | --- | --- | --- | --- | --- |
| COc1ccc(/C=C/C(=O)c2ccc(OC)cc2OC)cc1 [UNC10121790A] | 72.4 | 107.4 | 104.1 | 66.8 | 97.3 | 138.7 | 199.6 | 97.7 | – | – | – | – | – | – | – | – | – | – | – | – |
| COC(=O)C1=C(C)NC2=C(C(=O)c3ccccc32)C1c1ccccc1OCc1ccccc1F (stereo not shown) [UNC10303111A] | – | – | – | – | – | – | – | – | 84.0 | 101.6 | 106.1 | 166.8 | 93.9 | 99.7 | 307.3 | 61.6 | – | – | – | – |
| CCCCCCOc1cc2c(cc1N(C)c1ncc(C(=O)O)cn1)C(C)(C)CCC2(C)C [UNC10302707A] | – | – | – | – | – | – | – | – | 135.9 | 104.8 | 101.8 | 137.9 | 106.3 | 90.2 | 161.8 | 53.6 | – | – | – | – |
| O=C(Nc1ccc([N+](=O)[O-])cc1Cl)c1cc(Cl)ccc1O [UNC10302856A] | 132.8 | 104.4 | 103.0 | 150.0 | 101.6 | 94.0 | 133.2 | 50.1 | – | – | – | – | – | – | – | – | – | – | – | – |
| CN(C)C/C=C/C(=O)Nc1cc2c(Nc3ccc(F)c(Cl)c3)ncnc2cc1O[C@H]1CCOC1 [UNC10302894A] | – | 107.0 | 89.4 | 95.3 | 52.1 | 246.1 | 41.4 | 43.8 | – | – | – | – | – | – | – | – | – | – | – | – |
| Cc1cc(O)cc2c1[C@]1(C)CCC3C(C)(C)CCC[C@]3(C)[C@H]1C2 (stereo partly shown) [UNC10302703A] | – | – | – | – | – | – | – | – | 88.9 | 108.7 | 100.3 | 107.3 | 104.4 | 94.7 | 179.0 | 74.6 | – | – | – | – |
| Cc1cc(C)nc(NC(=S)N2CCN(Cc3ccc(C(F)(F)F)cc3)CC2)c1 [UNC10302844A] | 129.8 | 107.6 | 103.9 | 133.1 | 97.8 | 105.3 | 180.4 | 108.4 | – | – | – | – | – | – | – | – | – | – | – | – |
| CC(Nc1nc(N2CCCC2)nc2ccccc12)c1ccccc1 (stereo not shown) [UNC10302900A] | 9.8 | 106.6 | 119.7 | 56.4 | 90.6 | 151.6 | 110.9 | 34.5 | – | – | – | – | – | – | – | – | – | – | – | – |
| Br.CCCc1cc(-c2nc(-c3ccc(C)cc3)cs2)ccn1 [UNC10302889A] | 52.9 | 97.6 | 117.7 | 81.4 | 79.1 | 141.7 | 198.0 | 101.1 | – | – | – | – | – | – | – | – | – | – | – | – |
| O=c1oc2ccccc2cc1-c1cn2cc(Cc3ccc(F)cc3)sc2n1 [UNC10302680A] | 59.2 | 99.6 | 132.0 | 107.8 | 96.3 | 103.3 | 114.2 | 72.6 | – | – | – | – | – | – | – | – | – | – | – | – |
| Nc1ncnc2c1nc(Sc1ccc(Cl)cc1)n2[C@@H]1O[C@@H]2COP(=O)([O-])O[C@H]2[C@H]1O.[Na+] [UNC10302890A] | 107.7 | 106.8 | 98.4 | 115.9 | 99.4 | 99.1 | 104.7 | 84.6 | – | – | – | – | – | – | – | – | – | – | – | – |
| C=C1C(=O)[C@]23[C@H](O)[C@H]1CC[C@H]2[C@@]12CO[C@]3(O)[C@@H](O)[C@@H]1C(C)(C)CC[C@@H]2O [Oridonin] | – | – | – | – | – | – | – | – | – | – | – | – | – | – | – | – | Y (The compound was found to be cytotoxic (cell count threshold: <70% control) when murine immortalized microglial cells were dosed at 10 μM (Y: yes)) | Y (The compound was found to be cytotoxic (cell count threshold: <70% control) when human immortalized microglial cells were dosed at 10 μM (Y: yes)) | Y (The compound was found to stimulate phagocytosis (response threshold: >150% control) when murine immortalized microglial cells were dosed at 10 μM (Y: yes)) | Y (The compound was found to inhibit phagocytosis (response threshold: <70% control) when human immortalized microglial cells were dosed at 10 μM (Y: yes)) |
| CN1CCN(CCCN2c3ccccc3Sc3ccc(C(F)(F)F)cc32)CC1.Cl.Cl [UNC10101287D] | – | – | – | – | – | – | – | – | 26.5 | 111.5 | 99.8 | 79.4 | 102.6 | 95.6 | 137.1 | 45.4 | – | – | – | – |
| CSc1ccc2c(c1)c(CCN)c(C)n2Cc1ccc(Cl)cc1Cl.Cl [UNC10302700A] | – | – | – | – | – | – | – | – | 22.6 | 113.6 | 33.9 | 10.1 | 49.3 | 146.5 | 0.00395 | 0.0 | – | – | – | – |
| Cc1cc2c(cc1C(=O)c1ccc(C(=O)O)cc1)C(C)(C)CCC2(C)C [UNC10302892A] | 95.3 | 107.4 | 95.0 | 88.9 | 102.9 | 97.5 | 90.2 | 75.7 | – | – | – | – | – | – | – | – | – | – | – | – |
| C=CC[C@@H]1/C=C(\C)C[C@H](C)C[C@H](OC)[C@H]2O[C@@](O)(C(=O)C(=O)N3CCCC[C@H]3C(=O)O[C@H](/C(C)=C/[C@@H]3CC[C@@H](O)[C@H](OC)C3)[C@H](C)[C@@H](O)CC1=O)[C@H](C)C[C@@H]2OC [UNC10121346A] | 60.9 | 110.1 | 115.2 | 103.0 | 100.5 | 98.5 | 195.2 | 110.2 | – | – | – | – | – | – | – | – | – | – | – | – |
| CN(C)CC#Cc1ccc(OCCCc2sc(N3CCc4cccc(C(=O)Nc5nc6ccccc6s5)c4C3)nc2C(=O)O)c(F)c1 [UNC10302697A] | – | – | – | – | – | – | – | – | 84.3 | 106.7 | 111.2 | 92.7 | 89.5 | 121.7 | 206.2 | 54.1 | – | – | – | – |
| O=c1[nH]c2ccccc2n1C1CCN(CCCC(c2ccc(F)cc2)c2ccc(F)cc2)CC1 [UNC10101002A] | – | – | – | – | – | – | – | – | 77.1 | 99.5 | 98.4 | 97.6 | 104.3 | 96.0 | 134.9 | 140.6 | – | – | – | – |
